# Literature values, collected in PMC10878532, “Sperm Toolbox—A selection of small molecules to study human spermatozoa” (PLOS ONE, 2024).
# Structures can show the parent of a compound that is named as a salt.
# System: spermatozoa
# Parameters: method as in per compound as listed in column References of Table 1
# Settings: summaries of reported effects; ref per compound as listed in Table 1; cited from earlier work
row,Structure (SMILES),Published Phenotype
1,Nc1nonc1C(=O)c1cccc(OCc2nc3ccccc3[nH]2)c1 [ASI-8],Blocks soluble adenyl cyclase (sAC)
2,COc1cc2nc(N(C)CCCNC(=O)C3CCCO3)nc(N)c2cc1OC (centres unmarked) [Alfuzosin],Interferes with ejaculation
3,CCCCC/C=C\C/C=C\C/C=C\C/C=C\CCCC(=O)NCCO [Anandamide],Reduces sperm motility
4,CC(=O)N1CCC(C(=O)N(CCCN2CCN(Cc3ccc(F)cc3)CC2)c2ccc(C)c(Cl)c2)CC1 [B07 hydrochloride],Reduction of sperm motility
5,CC1(C)CC=C(c2ccccc2)c2cc(/C=C/c3ccc(C(=O)O)cc3)ccc21 [BMS-189453],Interferes with spermatogenesis
6,Cn1c(=O)c2c(-c3ccccc3)n3c(c2n(C)c1=O)[C@H](c1ccc(Br)o1)Oc1ccc(C(=O)O)cc1-3 [BPO-27],CTFR inhibitor patent
7,Oc1c(Cl)cc(Cl)cc1Sc1cc(Cl)cc(Cl)c1O [Bithionol],Blocks sAC
8,O=C(O)c1ccc(/C=C2/SC(=S)N(c3cccc(C(F)(F)F)c3)C2=O)cc1 [CTFRinh-172],Blocks progesterone induced acrosome reaction; blocks sperm hyperactivation; blocks recombinant ZP3 induced acrosome reaction
9,CCOC(=O)CSc1nc(=O)c(NCC(=O)OC)n[nH]1 [Compound B4],Reduces sperm motility
10,OCCN(CCO)c1nc(N2CCCCC2)c2nc(N(CCO)CCO)nc(N3CCCCC3)c2n1 [Dipyridamole],Enhances sperm motility
11,CCN(CC)C(=S)SSC(=S)N(CC)CC [Disulfiram],immotile sperm; spermicidal
12,COc1ccc2nc([S@@+]([O-])Cc3ncc(C)c(OC)c3C)[nH]c2c1 [Esomeprazole],Reduces sperm motility
13,COC(=O)c1c(C)[nH]c(C)c1C(=O)c1ccccc1Cc1ccccc1 [FPL 64176],Modulates evoked Ca^2+ response
14,CC(C)C(C(=O)OC(C#N)c1cccc(Oc2ccccc2)c1)c1ccc(Cl)cc1 (centres unmarked) [Fenvalerate],Blocks progesterone induced acrosome reaction
15,C=C[C@@]1(C)CC(=O)[C@]2(O)[C@@]3(C)[C@@H](O)CCC(C)(C)[C@@H]3[C@H](O)[C@H](OC(C)=O)[C@@]2(C)O1 [Forskolin],Stimulates acrosome reaction
16,CN(C)CCCn1cc(C2=C(c3c[nH]c4ccccc34)C(=O)NC2=O)c2ccccc21 [GF 109203X],Blocks progesterone induced acrosome reaction; blocks progesterone induced Ca^2+ response
17,CCc1cc(Nc2nccc(-c3c(-c4ccc(OC)c(C(=O)Nc5c(F)cccc5F)c4)nc4ccccn34)n2)c(OC)cc1N1CCC(N2CCN(S(C)(=O)=O)CC2)CC1 [GSK1904529A],Inhibition of hyperactivation
18,COc1cc2ncn(-c3cc(OCc4ccccc4C(F)(F)F)c(C(N)=O)s3)c2cc1OC [GW 843682X],Enhances sperm motility
19,O=c1c(-c2ccc(O)cc2)coc2cc(O)cc(O)c12 [Genistein],Blocks progesterone induced acrosome reaction; blocks progesterone induced Ca^2+ response

row,Structure (SMILES),Published Phenotype
1,Cc1cc2c(C(C)C)c(O)c(O)c(C=O)c2c(O)c1-c1c(C)cc2c(C(C)C)c(O)c(O)c(C=O)c2c1O [Gossypol],Causes azoospermia
2,O=S(=O)(NCCNC/C=C/c1ccc(Br)cc1)c1cccc2cnccc12 [H 89 dihydrochloride],Evokes Ca^2+ signaling in sperm cells
3,O=C(c1cccs1)c1no[n+]([O-])c1C(=O)c1cccs1 [HC-056456],Blocks Ca^2+ and Na^+ entry; blocks onset of hyperactive motility
4,CO[C@H]1[C@@H](OC)C[C@H](C)[C@@H](OC)C2=CC(=O)C=C(NC(=O)/C(C)=C/C=C\[C@H](OC)[C@@H](OC(N)=O)/C(C)=C/[C@@H]1C)C2=O [Herbimycin a],Blocks progesterone induced acrosome reaction; blocks progesterone induced Ca^2+ response
5,Oc1c(Cl)cc(Cl)c(Cl)c1Cc1c(O)c(Cl)cc(Cl)c1Cl [Hexachlorophene],Reduces sperm motility; blocks sAC
6,CC(C)Cn1c(=O)n(C)c(=O)c2[nH]cnc21 [IBMX],Modulates capacitation
7,CC(C)Cn1cnc2c(N)nc3ccccc3c21 [Imiquimod],Reduction of sperm motility; only sperm with X chromosome
8,Cc1sc2c(c1C)C(c1ccc(Cl)cc1)=N[C@@H](CC(=O)OC(C)(C)C)c1nnc(C)n1-2 [JQ1],Interferes with spermatogenesis; reduces sperm count; reduces motility
9,COc1cc(SC)ccc1C(=O)N1CCC(Cc2ccccc2)CC1 [JX 401],Modulates Ca^2+ response
10,CCCCCCOC(=O)[C@]1(O)C[C@@H]2O[C@@]1(C)n1c3ccccc3c3c4c(c5c6ccccc6n2c5c31)C(=O)NC4 [KT 5720],Evokes Ca^2+ signaling in sperm
11,Nc1nc(Cl)cc(N(Cc2cccs2)C2CC2)n1 [LRE1],Prevents hyperactivation
12,CC(C)c1ccc2c(c1)CC[C@H]1[C@](C)(CN)CCC[C@]21C [Leelamine hydrochloride],Modulates P4 evoked Ca^2+ response
13,CCCCCCCCCCCCCCCCOCC(COCC(F)(F)F)OP(=O)(O)OC (centres unmarked) [MJ33],Prevents capacitation-associated tyrosine phosphorylation by PKA
14,COCC(=O)O[C@]1(CCN(C)CCCc2nc3ccccc3[nH]2)CCc2cc(F)ccc2[C@@H]1C(C)C [Mibefradil],Blocks progesterone induced Ca^2+ response
15,CCCCN1C[C@H](O)[C@@H](O)[C@H](O)[C@H]1CO [Miglustat],Interferes with spermatogenesis
16,CC(C)[C@H]1c2ccc(F)cc2CC[C@@]1(CCN(C)CCCc1nc2ccccc2[nH]1)OC(=O)C1CC1 [NNC 55–0396 dihydrochloride],Blocks ccl-20 induced Ca^2+ response; Modulates CatSper
17,N=C(N)c1ccc2cc(OC(=O)c3ccc(N=C(N)N)cc3)ccc2c1 [Nafamostat],Interferes with liquefaction; reduces sperm motility
18,O=C(Nc1ccc([N+](=O)[O-])cc1Cl)c1cc(Cl)ccc1O [Niclosamide],Shape abnormality
19,O=C(O)c1cccnc1Nc1cccc(C(F)(F)F)c1 [Niflumic acid],Blocks acrosome reaction induced by recombinant rhZP3

row,Structure (SMILES),Published Phenotype
1,Cc1ccc(S(=O)(=O)c2c(N)n(CC(O)c3ccc([N+](=O)[O-])cc3)c3nc4ccccc4nc23)cc1 (centres unmarked) [Oprea1_544341],Reduces sperm motility; role of glycolysis in sperm motility
2,C[C@@H]1O[C@@H](O[C@H]2C[C@@H](O)[C@]3(CO)[C@H]4[C@H](O)C[C@]5(C)[C@@H](C6=CC(=O)OC6)CC[C@]5(O)[C@@H]4CC[C@]3(O)C2)[C@H](O)[C@H](O)[C@H]1O [Ouabain],Reduces sperm motility
3,c1ccc2c(c1)SCc1c-2[nH]c2ccccc12 [PD 146176],Antagonizing negative effects of ROS on sperm function such as acrosome reaction
4,CN(c1ccccc1CNc1nc(Nc2ccc3c(c2)CC(=O)N3)ncc1C(F)(F)F)S(C)(=O)=O [PF 431396],Blocks capacitation
5,Cc1[nH]c(/C=C2\C(=O)Nc3ccc(S(=O)(=O)Cc4c(Cl)cccc4Cl)cc32)c(C)c1C(=O)N1CCC[C@@H]1CN1CCCC1 [Pha-665752],Modulates P4 evoked Ca^2+ response
6,c1cnc2c(c1)ccc1cccnc12 [Phenanthroline],Inhibit proteolytic activity of PSA
7,COC(=O)[C@]1(C)CC[C@]2(C)CC[C@]3(C)C4=CC=C5C(=CC(=O)C(O)=C5C)[C@]4(C)CC[C@@]3(C)[C@@H]2C1 [Pristimerin],Modulates sperm motility; reduces progesterone induced Ca^2+ response
8,CCOCc1nc2c(N)nc3ccccc3c2n1CC(C)(C)O [Resiquimod],Reduction of sperm motility; only sperm with X chromosome
9,[Na+].[Na+].[Na+].[O]=[V]([O-])([O-])[O-] [Sodium orthovanadate],Blocks progesterone induced acrosome reaction; blocks progesterone induced Ca^2+ response
10,CC(C)(O)c1ccn2c(-c3ccc(F)c(-c4ccc(F)cc4C#N)c3)cnc2c1F [TP 003],Enhances sperm motility
11,C=CC[C@@H]1/C=C(\C)C[C@H](C)C[C@H](OC)[C@H]2O[C@@](O)(C(=O)C(=O)N3CCCC[C@H]3C(=O)O[C@H](/C(C)=C/[C@@H]3CC[C@@H](O)[C@H](OC)C3)[C@H](C)[C@@H](O)CC1=O)[C@H](C)C[C@@H]2OC [Tacrolimus],Blocks progesterone induced acrosome reaction
12,COc1cn(-c2ccc(-n3cccn3)cc2F)nc(-c2ccnn2-c2ccccc2)c1=O [Tak-063],Enhances sperm motility
13,CCOc1ccccc1OCCN[C@H](C)Cc1ccc(OC)c(S(N)(=O)=O)c1 [Tamsulosin],Interferes with ejaculation
14,O=c1sn(-c2cccc3ccccc23)c(=O)n1Cc1ccccc1 [Tideglusib],Spermicidal; vaginal treatment
15,Nc1ccc(-c2ccc3ncc4ccc(=O)n(-c5cccc(C(F)(F)F)c5)c4c3c2)cn1 [Torin 2],Enhances sperm motility
16,COc1ccc(CCCN2CCC(COC(c3ccccc3)c3ccccc3)CC2)cc1 [UK 78282 hydrochloride],Modulates Ca^2+ response
17,O.O.O.OO.OO.[K+].[OH-].[V].c1cnc2c(c1)ccc1cccnc12 [bpV(phen)],Blocks progesterone induced acrosome reaction; blocks progesterone induced Ca^2+ response
18,CC(C)(C)c1ccc(S(=O)(=O)Nc2cnc3[nH]c(C(=O)N[C@H]4CCC[C@H]4O)c(-c4ccccc4)c3c2)cc1 [compound 68853496],Patent; sAC inhibitor
